Measured values taken from ChEMBL document CHEMBL4402605, “A Chemical Switch for Transforming a Purine Agonist for Toll-like Receptor 7 to a Clinically Relevant Antagonist” (J Med Chem, 2020).
Calls of active or inactive are those of the source. No cut-off for these calls is given here.

Tests used:
[1] = Toxicity in C57BL/6 mouse assessed as change in lung alveolar architecture at 15 mg/kg, po administered once daily via gavage for 7 consecutive days and measured post-last dose by H and E staining based histomorphological analysis; format: organism-based; conditions: in vivo
[2] = Toxicity in C57BL/6 mouse assessed as change in hepatocyte survival at 15 mg/kg, po administered once daily via gavage for 7 consecutive days and measured post-last dose by H and E staining based histomorphological analysis; format: organism-based; conditions: in vivo
[3] = target: T1, Toll-like receptor 8 (Homo sapiens) (UniProt Q9NR97); experiment: Antagonist activity at human TLR8 expressed in HEK-Blue cells assessed as inhibition of CL075-induced NFkappaB activation by measuring reduction in SEAP level up to 50 uM after overnight incubation using qunati-blue reagent by SEAP reporter gene-based spectrophotometric method; format: cell-based
T1 sequence (whole entry): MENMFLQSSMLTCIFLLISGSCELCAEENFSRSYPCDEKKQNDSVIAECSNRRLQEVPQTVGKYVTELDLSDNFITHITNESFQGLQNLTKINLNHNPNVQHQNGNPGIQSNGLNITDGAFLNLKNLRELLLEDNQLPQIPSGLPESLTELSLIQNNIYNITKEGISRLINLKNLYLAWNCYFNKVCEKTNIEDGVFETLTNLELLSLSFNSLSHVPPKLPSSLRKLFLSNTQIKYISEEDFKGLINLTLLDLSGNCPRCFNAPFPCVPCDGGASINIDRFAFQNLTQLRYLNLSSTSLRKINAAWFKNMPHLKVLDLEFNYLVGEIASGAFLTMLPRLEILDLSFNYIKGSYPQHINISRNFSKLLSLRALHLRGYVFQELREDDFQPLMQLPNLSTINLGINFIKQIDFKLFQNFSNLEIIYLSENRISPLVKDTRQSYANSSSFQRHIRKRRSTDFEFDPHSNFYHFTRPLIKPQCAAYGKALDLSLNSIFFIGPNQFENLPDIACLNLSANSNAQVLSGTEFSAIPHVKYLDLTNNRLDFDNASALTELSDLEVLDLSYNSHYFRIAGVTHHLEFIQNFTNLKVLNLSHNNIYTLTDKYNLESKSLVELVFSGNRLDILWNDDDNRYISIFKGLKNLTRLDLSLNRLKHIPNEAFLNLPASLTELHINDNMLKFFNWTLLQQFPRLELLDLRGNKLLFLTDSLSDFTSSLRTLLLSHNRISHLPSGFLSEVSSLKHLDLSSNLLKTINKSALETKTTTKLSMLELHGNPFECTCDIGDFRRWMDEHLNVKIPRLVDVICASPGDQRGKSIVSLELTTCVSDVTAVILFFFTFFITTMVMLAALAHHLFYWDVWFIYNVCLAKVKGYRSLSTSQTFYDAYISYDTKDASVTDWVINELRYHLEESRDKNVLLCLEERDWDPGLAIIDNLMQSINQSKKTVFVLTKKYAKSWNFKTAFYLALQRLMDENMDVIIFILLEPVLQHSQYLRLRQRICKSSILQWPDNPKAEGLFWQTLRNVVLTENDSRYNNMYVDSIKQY

Mus musculus [4] = experiment: (§1) Protection against imiquimod-induced C57BL/6 mouse model of psoriasis assessed as decrease in skin thickening at 15 mg/kg, po administered via gavage treated 1 day prior to imiquimod application and subsequent daily dosing for 7 consecutive days and measured post-last dose; format: functional, organism-based
[5] = Half life in C57BL/6 mouse at 15 mg/kg, po administered via gavage by LC-MS/MS analysis; conditions: in vivo
HEK293 = experiment: Cytotoxicity against HEK293 cells assessed as reduction in cell viability up to 100 uM measured after overnight incubation by propidium iodide staining based flow cytometry; conditions: human
[6] = Volume of distribution at steady state in C57BL/6 mouse at 15 mg/kg, iv by LC-MS/MS analysis; format: ADME, organism-based; conditions: in vivo
[7] = Efflux ratio of apparent permeability across basal to apical side over apical to basal side in human Caco2 cells at 10 uM measured after 120 mins by LC-MS/MS analysis; conditions: Caco-2
[8] = Toxicity in C57BL/6 mouse assessed as physiological abnormalities at 15 mg/kg, po administered once daily via gavage for 7 consecutive days and measured post-last dose by H and E staining based histomorphological analysis; format: organism-based; conditions: in vivo
Toll-like receptor 7 = target: T2, Toll-like receptor 7 (Homo sapiens, UniProt Q9NYK1)
T2 sequence (Q9NYK1 whole entry): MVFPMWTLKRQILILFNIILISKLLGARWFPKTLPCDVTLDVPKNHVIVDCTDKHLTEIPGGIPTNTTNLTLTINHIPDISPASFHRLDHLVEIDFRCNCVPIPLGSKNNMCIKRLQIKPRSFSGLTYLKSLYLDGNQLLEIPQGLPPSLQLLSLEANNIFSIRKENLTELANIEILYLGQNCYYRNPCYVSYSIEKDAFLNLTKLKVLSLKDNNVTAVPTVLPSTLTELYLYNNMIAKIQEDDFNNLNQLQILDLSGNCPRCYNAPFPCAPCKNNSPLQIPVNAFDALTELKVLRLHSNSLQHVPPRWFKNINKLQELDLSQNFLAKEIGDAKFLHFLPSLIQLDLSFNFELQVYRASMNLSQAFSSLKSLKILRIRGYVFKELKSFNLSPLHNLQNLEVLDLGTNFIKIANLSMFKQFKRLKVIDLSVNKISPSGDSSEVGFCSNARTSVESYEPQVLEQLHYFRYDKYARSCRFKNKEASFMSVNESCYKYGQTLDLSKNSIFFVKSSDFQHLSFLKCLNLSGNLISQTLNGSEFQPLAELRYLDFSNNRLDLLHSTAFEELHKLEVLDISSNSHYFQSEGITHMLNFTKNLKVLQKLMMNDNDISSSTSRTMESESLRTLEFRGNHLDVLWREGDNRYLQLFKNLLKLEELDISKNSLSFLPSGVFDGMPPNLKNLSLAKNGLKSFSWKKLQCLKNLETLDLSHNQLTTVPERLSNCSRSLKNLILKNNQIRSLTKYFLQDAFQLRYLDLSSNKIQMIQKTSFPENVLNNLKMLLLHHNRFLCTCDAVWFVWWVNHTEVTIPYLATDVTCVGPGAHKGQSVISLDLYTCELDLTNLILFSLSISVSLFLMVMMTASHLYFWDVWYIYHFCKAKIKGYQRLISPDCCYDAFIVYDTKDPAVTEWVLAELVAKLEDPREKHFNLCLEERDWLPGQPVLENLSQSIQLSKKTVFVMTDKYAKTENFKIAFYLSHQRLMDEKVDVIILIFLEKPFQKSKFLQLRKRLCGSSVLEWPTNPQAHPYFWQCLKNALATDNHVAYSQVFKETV
Description: Antagonist activity at human TLR7 expressed in HEK-Blue cells assessed as inhibition of CL264-induced NFkappaB activation by measuring reduction in SEAP level after overnight incubation using qunati-blue reagent by SEAP reporter gene-based spectrophotometric method

Mus musculus [9] = experiment: as §1, with “suppression of acanthosis” for “decrease in skin thickening”, “dose by H and E staining based histopathological analysis” for “dose”; format: functional
[10] = Toxicity in C57BL/6 mouse assessed as liver inflammation at 15 mg/kg, po administered once daily via gavage for 7 consecutive days and measured post-last dose by H and E staining based histomorphological analysis; format: organism-based; conditions: in vivo
[11] = Cmax in C57BL/6 mouse at 15 mg/kg, po administered via gavage by LC-MS/MS analysis; format: ADME, organism-based; parameters: dose 15 mg/kg, route oral; conditions: in vivo

**Q.** With `CCN1CCN(CCCn2cnc3c(N4CCN(CC)CC4)ncnc32)CC1` as the compound, how does the Activity [1] read?
**A.** The Activity was “Non-Toxic”.

**Q.** And the Activity [2]?
**A.** The Activity was “Non-Toxic”.

**Q.** What about the inhibition [3] of the same compound?
**A.** The inhibition was “inactive”.

**Q.** And the Activity (Mus musculus [4])?
**A.** The Activity was “Active”.

**Q.** What about the half-life [5] of the same compound?
**A.** Its half-life is 4.6 h.

**Q.** What about the Activity (HEK293) of the same compound?
**A.** The Activity was “Non-Toxic”.

**Q.** And the Vdss [6]?
**A.** The Vdss was 4.2 L/kg.

**Q.** And the efflux ratio at 2 h, 10 µM [7]?
**A.** Its efflux ratio at 2 h, 10 µM is 2.6.

**Q.** What about the Activity [8] of the same compound?
**A.** The Activity was “Non-Toxic”.

**Q.** And the IC50 (Toll-like receptor 7)?
**A.** Its IC50 is 4.7 µM.

**Q.** What about the Activity (Mus musculus [9]) of the same compound?
**A.** Its Activity is 100%.

**Q.** And the Activity [10]?
**A.** The Activity was “Non-Toxic”.

**Q.** What about the Cmax [11] of the same compound?
**A.** Its Cmax is 2600 ng/mL.
